Experimental data from patent US20230102554A1 (GB002, INC., priority 2019, published 2023).

Key:
[1] = target: T1, Human PDGFRα, cytoplasmic domain (GST-PDGFRα) (Homo sapiens, UniProt P16234); assay: Human PDGFRα biochemical inhibition assay (off-chip Mobility Shift Assay)
T1 construct: made in house

[2] = target: T2, Human PDGFRβ, cytoplasmic domain (GST-PDGFRβ) (Homo sapiens, UniProt P09619); assay: Human PDGFRβ biochemical inhibition assay (off-chip Mobility Shift Assay)
T2 construct: made in house
T2 sequence (P09619 with tags, fused parts or gaps): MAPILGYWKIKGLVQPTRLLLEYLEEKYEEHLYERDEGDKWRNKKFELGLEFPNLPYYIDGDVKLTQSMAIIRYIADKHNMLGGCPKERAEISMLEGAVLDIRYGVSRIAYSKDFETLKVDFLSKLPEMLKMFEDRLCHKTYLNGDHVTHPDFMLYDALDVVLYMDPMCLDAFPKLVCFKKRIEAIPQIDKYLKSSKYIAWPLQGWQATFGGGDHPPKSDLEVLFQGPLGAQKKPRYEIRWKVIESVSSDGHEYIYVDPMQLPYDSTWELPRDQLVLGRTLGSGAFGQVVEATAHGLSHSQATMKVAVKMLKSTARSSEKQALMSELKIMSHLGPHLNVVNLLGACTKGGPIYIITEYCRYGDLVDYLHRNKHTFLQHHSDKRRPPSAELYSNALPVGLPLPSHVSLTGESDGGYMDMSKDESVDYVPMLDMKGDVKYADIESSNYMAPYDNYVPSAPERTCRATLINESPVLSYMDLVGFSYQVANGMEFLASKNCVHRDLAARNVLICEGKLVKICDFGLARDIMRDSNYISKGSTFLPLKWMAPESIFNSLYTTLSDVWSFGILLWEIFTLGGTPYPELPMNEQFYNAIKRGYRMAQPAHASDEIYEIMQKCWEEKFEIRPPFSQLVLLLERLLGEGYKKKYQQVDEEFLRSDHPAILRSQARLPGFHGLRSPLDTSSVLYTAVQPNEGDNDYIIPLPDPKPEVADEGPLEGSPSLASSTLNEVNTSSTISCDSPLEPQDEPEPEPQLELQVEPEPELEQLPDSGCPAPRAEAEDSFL
Experimental: Human PDGFRβ Biochemical Inhibition Assay
The compounds described herein were tested for the ability to inhibit activity of PDGFRβ which was achieved via use of an off-chip Mobility Shift Assay (MSA). Human PDGFRβ, cytoplasmic domain [557-1106 (end) amino acids of accession number NP_002600.1 (SEQ ID NO: 3)] was expressed as N-terminal GST-fusion protein (88 kDa) using baculovirus expression system (SEQ ID NO: 4). GST-PDGFRβ was purified by using glutathione sepharose chromatography. Test compounds were dissolved in and diluted with dimethylsulfoxide (DMSO) to achieve 1 mM concentration. Then the solution was further diluted 25-fold with assay buffer to make the final test compound solution. The reference compound, Staurosporine, used as the assay positive control was prepared similarly. The 4× compound solution/substrate (CSKtide, 1000 nM)/ATP (Km ATP)/Mg Metal (5 mM) was prepared with kit buffer (20 mM HEPES, 0.01% Triton X-100, 5 mM DTT, pH 7.5), and 2× kinase solution was prepared with assay buffer (20 mM HEPES, 0.01% Triton X-100, 1 mM DTT, pH 7.5). The 5 μL of 4× compound solution, […] of 4× Substrate/ATP/Metal solution, and […] of 2× kinase solution were mixed and incubated in a well of polypropylene 384 well microplate for 1 hour at room temperature. […] of Termination Buffer (QuickScout Screening Assist MSA; Carna Biosciences) was added to the well. The reaction mixture was applied to LabChip™ system (Perkin Elmer), and the product and substrate peptide peaks were separated and quantitated. The kinase reaction was evaluated by the product ratio calculated from peak heights of product(P) and substrate(S) peptides (P/(P+S)). The readout value of reaction control (complete reaction mixture) was set as a 0% inhibition, and the readout value of background (Enzyme(−)) was set as a 100% inhibition, then the percent inhibition of each test solution was calculated.
With respect to PDGFRβ activity: “+++” denotes an IC50 of less than 300 nM; “++” denotes an IC50 of from 300 nM to less than 1000 nM; and “+” denotes an IC50 of 1000 nM or more.

T1 sequence (P16234 550-1089 T674I): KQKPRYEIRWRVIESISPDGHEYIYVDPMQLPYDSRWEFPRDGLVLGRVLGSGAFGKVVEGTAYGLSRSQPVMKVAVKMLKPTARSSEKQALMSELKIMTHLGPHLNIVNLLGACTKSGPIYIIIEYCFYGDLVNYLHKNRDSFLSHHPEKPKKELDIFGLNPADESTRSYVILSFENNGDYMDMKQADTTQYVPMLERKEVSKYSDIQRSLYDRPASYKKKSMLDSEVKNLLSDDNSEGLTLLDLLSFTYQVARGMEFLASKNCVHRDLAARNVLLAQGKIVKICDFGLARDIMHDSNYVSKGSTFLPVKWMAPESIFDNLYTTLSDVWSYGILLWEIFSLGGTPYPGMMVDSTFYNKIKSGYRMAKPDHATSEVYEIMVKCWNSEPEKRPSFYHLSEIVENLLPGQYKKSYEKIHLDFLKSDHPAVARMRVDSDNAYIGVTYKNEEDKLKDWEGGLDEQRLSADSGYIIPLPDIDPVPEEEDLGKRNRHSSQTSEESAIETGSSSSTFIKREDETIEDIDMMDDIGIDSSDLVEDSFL

SMILES | IC50 [1] [nM] | IC50 [2] [nM]
CCn1cc2ncc(N[C@@H](C)c3cccc(NC(=O)Nc4ccc(C(F)(F)F)nc4)c3)nc2n1 [Compound 736, (S)-1-(3-(1-((2-ethyl-2H-pyrazolo[3,4-b]pyrazin-6-yl)amino)ethyl)phenyl)-3-(6-(trifluoromethyl)pyridin-3-yl) urea] | < 300 | < 300
CCn1cc2ncc(N[C@@H](C)c3cccc(NC(=O)c4ccc(CN5CC6(COC6)C5)c(C)c4)c3)nc2n1 [Compound 414, (S)-4-((2-oxa-6-azaspiro[3.3]heptan-6-yl)methyl)-N-(3-(1-((2-ethyl-2H-pyrazolo[3,4-b]pyrazin-6-yl)amino)ethyl)phenyl)-3-methylbenzamide] | < 300 | < 300
CCn1cc2ncc(N[C@@H](C)c3cc(NC(=O)Cc4ccc(Cl)cn4)ccc3F)nc2n1 [Compound 650, (S)-2-(5-chloropyridin-2-yl)-N-(3-(1-((2-ethyl-2H-pyrazolo[3,4-b]pyrazin-6-yl)amino)ethyl)-4-fluorophenyl)acetamide] | < 300 | 300 to 1000
CCn1cc2ncc(N[C@@H](C)c3cccc(NC(=O)Nc4cnc(NC)c(C)c4)c3)nc2n1 [Compound 743, (S)-1-(3-(1-((2-ethyl-2H-pyrazolo[3,4-b]pyrazin-6-yl)amino)ethyl)phenyl)-3-(5-methyl-6-(methylamino)pyridin-3-yl)urea] | < 300 | 300 to 1000
CCn1cc2ncc(N[C@@H](C)c3cccc(NC(=O)c4ccc(CN5CC(O)C5)c(C)c4)c3)nc2n1 [Compound 496, (S)-N-(3-(1-((2-ethyl-2H-pyrazolo[3,4-b]pyrazin-6-yl)amino)ethyl)phenyl)-4-((3-hydroxyazetidin-1-yl)methyl)-3-methylbenzamide] | < 300 | 300 to 1000
CCn1cc2ncc(N[C@@H](C)c3cccc(NC(=O)c4ccc(CN5CC6CC6C5)c(C)c4)c3)nc2n1 (some centres unmarked) [Compound 477, 4-((3-azabicyclo[3.1.0]hexan-3-yl)methyl)-N-(3-((5)-1-((2-ethyl-2H-pyrazolo[3,4-b]pyrazin-6-yl)amino)ethyl)phenyl)-3-methylbenzamide] | < 300 | < 300
Cc1n[nH]c2ncc(N[C@@H](C)c3cccc(NC(=O)c4ccc(OC(F)(F)F)nc4)c3)nc12 [Compound 536, (S)-N-(3-(1-((3-methyl-1H-pyrazolo[3,4-b]pyrazin-5-yl)amino)ethyl)phenyl)-6-(trifluoromethoxy)nicotinamide] | < 300 | < 300
Cc1cncc(C(=O)Nc2cccc([C@H](C)Nc3cncc4nn(C)cc34)c2)c1 [Compound 747, (S)-5-methyl-N-(3-(1-((2-methyl-2H-pyrazolo[3,4-c]pyridin-4-yl)amino)ethyl)phenyl)nicotinamide] | ≥ 1000 | ≥ 1000
C[C@H](Nc1cnc2cn(C3CC3)nc2n1)c1cc(NC(=O)c2cnc(C(F)(F)F)s2)ccc1F [Compound 399, (S)-N-(3-(1-((2-cyclopropyl-2H-pyrazolo[3,4-b]pyrazin-6-yl)amino)ethyl)-4-fluorophenyl)-2-(trifluoromethyl)thiazole-5-carboxamide] | < 300 | < 300
CCn1cc2ncc(N[C@@H](C)c3cccc(NC(=O)c4ccc(N5CCCC5)nc4)c3)nc2n1 [Compound 375, (S)-N-(3-(1-((2-ethyl-2H-pyrazolo[3,4-b]pyrazin-6-yl)amino)ethyl)phenyl)-6-(pyrrolidin-1-yl)nicotinamide] | < 300 | 300 to 1000
CCn1cc2ncc(N[C@@H](C)c3cccc(NC(=O)Cc4ccc(OC)c(F)c4)c3)nc2n1 [Compound 626, (S)-N-(3-(1-((2-ethyl-2H-pyrazolo[3,4-b]pyrazin-6-yl)amino)ethyl)phenyl)-2-(3-fluoro-4-methoxyphenyl) acetamide] | < 300 | ≥ 1000
CCn1cc2ncc(N[C@@H](C)c3cc(NC(=O)c4ccc(CN5CCCC5)c(C)c4)ccc3F)nc2n1 [Compound 470, (S)-N-(3-(1-((2-ethyl-2H-pyrazolo[3,4-b]pyrazin-6-yl)amino)ethyl)-4-fluorophenyl)-3-methyl-4-(pyrrolidin-1-ylmethyl)benzamide] | < 300 | < 300
CCn1cc2ncc(N[C@@H](C)c3cc(NC(=O)Cc4ccc(Cl)cn4)ccc3C)nc2n1 [Compound 657, (S)-2-(5-chloropyridin-2-yl)-N-(3-(1-((2-ethyl-2H-pyrazolo[3,4-b]pyrazin-6-yl)amino)ethyl)-4-methylphenyl)acetamide] | < 300 | < 300
CCn1cc2ncc(N[C@@H](C)c3cc(NC(=O)c4ccc(CN5CCN(C)CC5)c(C)c4)ccc3F)nc2n1 [Compound 457, (S)-N-(3-(1-((2-ethyl-2H-pvrazolo[3,4-b]pyrazin-6-yl)amino)ethyl)-4-fluorophenyl)-3 methyl-4-((4-methylpiperazin-1-yl)methyl)benzamide] | < 300 | < 300

Other lines, results leading:

IC50 [1] [nM] | IC50 [2] [nM] | SMILES
< 300 | < 300 | COc1ccc2nc(N[C@@H](C)c3cccc(NC(=O)c4cncc(C)c4)c3)cnc2c1 [Compound 33, (S)-N-(3-(1-((6-methoxyquinoxalin-2-yl)amino)ethyl)phenyl)-5-methylnicotinamide]
< 300 | < 300 | Cc1c[nH]c2ncc(N[C@@H](C)c3cccc(NC(=O)c4cc(C(C)C)on4)c3)nc12 [Compound 554, (S)-5-isopropyl-N-(3-(1-((7-methyl-5H-pyrrolo[2,3-b]pyrazin-2-yl)amino)ethyl)phenyl)isoxazole-3-carboxamide]
< 300 | ≥ 1000 | Cc1cnn(C(=O)Nc2cccc([C@H](C)Nc3cnc4cnn(C)c4n3)c2)c1 [Compound 168, (S)-4-methyl-N-(3-(1-((1-methyl-1H-pyrazolo[3,4-b]pyrazin-6-yl)amino)ethyl)phenyl)-1H-pyrazole-1-carboxamide]
< 300 | < 300 | Cc1cncc(C(=O)Nc2cccc([C@H](C)Nc3cnc4ccc(-c5cnn(C)c5)cc4n3)c2)c1 [Compound 42, (S)-5-methyl-N-(3-(1-((7-(1-methyl-1H-pyrazol-4-yl)quinoxalin-2-yl)amino)ethyl)phenyl)nicotinamide]
< 300 | < 300 | CCn1cc2ncc(N[C@@H](C)c3cccc(NC(=O)c4cncc(C(C)(C)F)c4)c3)nc2n1 [Compound 280, (S)-N-(3-(1-((2-ethyl-2H-pyrazolo[3,4-b]pyrazin-6-yl)amino)ethyl)phenyl)-5-(2-fluoropropan-2-yl)nicotinamide]
< 300 | < 300 | Cc1cc(C(=O)Nc2cccc([C@H](C)Nc3cnc4cnn(C)c4n3)c2)cnc1C(C)C [Compound 231, (S)-6-isopropyl-5-methyl-N-(3-(1-((1-methyl-1H-pyrazolo[3,4-6]pyrazin-6-yl)amino)ethyl)phenyl)nicotinamide]
< 300 | < 300 | Cc1cncc(C(=O)Nc2cccc([C@H](C)Nc3cnc4ccn(-c5cnn(C)c5)c4n3)c2)c1 [Compound 86, (S)-5-methyl-N-(3-(1-((5-(1-methyl-1H-pyrazol-4-yl)-5H-pyrrolo[2,3-b]pyrazin-3-yl)amino)ethyl)phenyl) nicotinamide]
300 to 1000 | ≥ 1000 | Cc1cncc(C(=O)Nc2cccc([C@H](C)Nc3cnc4cnn(C5CCOCC5)c4n3)c2)c1 [Compound 180, (S)-5-methyl-N-(3-(1-((1-(tetrahydro-2H-pyran-4-yl)-1H-pyrazolo[3,4-b]pyrazin-6-yl)amino)ethyl)phenyl) nicotinamide]
< 300 | < 300 | C[C@H](Nc1cnc2cnn(C)c2n1)c1cccc(NC(=O)c2cnc3c(c2)CCCO3)c1 [Compound 70, (S)-N-(3-(1-((1-methyl-1H-pyrazolo[3,4-b]pyrazin-6-yl)amino)ethyl)phenyl)-3,4-dihydro-2H-pyrano[2,3-b] pyridine-6-carboxamide]
< 300 | < 300 | Cc1cncc(C(=O)Nc2cccc([C@H](C)Nc3cnc4cc(C)oc4n3)c2)c1 [Compound 17, (S)-5-methyl-N-(3-(1-((6-methylfuro[2,3-b]pyrazin-3-yl)amino)ethyl)phenyl)nicotinamide]
< 300 | < 300 | C[C@H](Nc1cnc2cnn(C)c2n1)c1cccc(NC(=O)c2cc(C(F)(F)F)n(C)n2)c1 [Compound 164, (S)-1-methyl-N-(3-(1-((1-methyl-1H-pyrazolo[3,4-b]pyrazin-6-yl)amino)ethyl)phenyl)-5-(trifluoromethyl)-1H-pyrazole-3-carboxamide]
